Experimental data published in US11590129B2, “Combination therapy with an antitumor alkaloid” (PHARMA MAR, S.A., priority 2010, dated 2023).

Key:
SW1990 tumors = experiment: Human pancreatic tumor xenografts (SW1990) in athymic nude mice, tumor volume % T/C; format: in vivo
Protocol: Female athymic nude mice (Harlan Laboratories Models, S.L. (Barcelona, Spain) were utilized for all experiments. Animals were housed in individually ventilated cages, up to ten per cage in a 12-hour light-dark cycle at 21-23° C. and 40-60% humidity. The mice were allowed free access to irradiated standard rodent diet and sterilized water. Animals were acclimated for at least 5 days prior to tumor implantation with a tumor cell suspension.
Each animal was subcutaneously implanted on the right flank, using 26G needle and a 1 cc syringe, with 5×10^6 SW1990 cells, from in vitro passage 12, in 0.05 mL suspension of 50% Matrigel and 50% serum free medium, without antibiotics.
PM01183 was provided in the form of vials of lyophilized PM01183 cake which was reconstituted with water for infusion to a concentration of 0.2 mg/mL. The PM01183 stock solution was further diluted in 5% glucose solution for injection to the dosing formulation concentrations.
Dose level groups were administered either as single agents or in combination.
Comparison of the median tumor volume in the treatment groups (T) to the median tumor volume in the control group (T/C×100%) was used for evaluation of the antitumor efficacy.

[1] = test system: HT-29 human colon adenocarcinoma cell line; experiment: cells; details: Homo sapiens, HT-29, 72 h
Summary of the method: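 HT-29 cells (5,000/well) were attached for 24 h, then exposed to vehicle or compounds for 72 h. Viability was read by MTT reduction, with 8 h MTT at 37° C and formazan dissolved in DMSO. Values are % of control cell growth.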

[2] = test system: PC-3 human prostate cancer cell line; experiment: cells; details: Homo sapiens, PC-3, 72 h
Summary of the method: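 Cells seeded at 5,000/well, grown 24 h drug-free, then exposed to vehicle or test compounds for 72 h. Viability by MTT reduction (8 h, 37 °C), formazan dissolved in DMSO. Values given as percentage of control cell growth.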

[3] = test system: IGROV-1 human ovarian adenocarcinoma cell line; experiment: cells; details: Homo sapiens, IGROV-1, 72 h
[4] = test system: A549 human lung carcinoma cell line; experiment: MTT cytotoxicity assay in A549 cells: IC50 of single agents and combinations with PM01183; format: cell-based; details: Homo sapiens, A549, 72 h
Summary of the method: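 A549 cells seeded at 5,000 per well, grown 24 h drug-free, then exposed to vehicle or compounds for 72 h, either singly or combined with PM01183. Combination responses plotted against dose ratio relative to an additivity line.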

[5] = test system: MDA-MB-231 human breast adenocarcinoma cell line; experiment: cells; details: Homo sapiens, MDA-MB-231, 72 h
[6] = test system: RXF-393 human kidney carcinoma cell line; experiment: cells; details: Homo sapiens, RXF 393, 72 h
[7] = PM01183 0.045 mg/kg iv days 0,7,14
[8] = PM01183 0.09 mg/kg iv days 0,7,14
[9] = PM01183 0.135 mg/kg iv days 0,7,14
[10] = PM01183 0.18 mg/kg iv days 0,7,14

Question: For `COc1ccc2[nH]c3c(c2c1)CCN[C@]31CS[C@@H]2c3c(OC(C)=O)c(C)c4c(c3[C@H](COC1=O)N1[C@@H]2[C@H]2c3c(cc(C)c(OC)c3O)C[C@@H]([C@@H]1O)N2C)OCO4` [PM01183], which “% T/C on day 0” value (SW1990 tumors; [7]) is on record?
Answer: 100.2%

Question: What about the “% T/C on day 3” value (SW1990 tumors; [7]) of the same molecule?
Answer: 83.6%

Question: And the “% T/C on day 6” value (SW1990 tumors; [7])?
Answer: 82.8%

Question: And the “% T/C on day 8” value (SW1990 tumors; [7])?
Answer: 93.3%

Question: What about the “% T/C on day 10” value (SW1990 tumors; [7]) of the same molecule?
Answer: 82.9%

Question: What about the “% T/C on day 13” value (SW1990 tumors; [7]) of the same molecule?
Answer: 88.1%

Question: What about the “% T/C on day 15” value (SW1990 tumors; [7]) of the same molecule?
Answer: 92.6%

Question: What about the “% T/C on day 17” value (SW1990 tumors; [7]) of the same molecule?
Answer: 86.5%

Question: What about the “% T/C on day 20” value (SW1990 tumors; [7]) of the same molecule?
Answer: 85.1%

Question: And the “% T/C on day 22” value (SW1990 tumors; [7])?
Answer: 84.5%

Question: And the “% T/C on day 24” value (SW1990 tumors; [7])?
Answer: 85.8%

Question: What about the “% T/C on day 28” value (SW1990 tumors; [7]) of the same molecule?
Answer: 85.4%

Question: What about the “% T/C on day 0” value (SW1990 tumors; [8]) of the same molecule?
Answer: 101.1%

Question: And the “% T/C on day 3” value (SW1990 tumors; [8])?
Answer: 81.5%

Question: And the “% T/C on day 6” value (SW1990 tumors; [8])?
Answer: 72.8%

Question: And the “% T/C on day 8” value (SW1990 tumors; [8])?
Answer: 68.7%

Question: And the “% T/C on day 10” value (SW1990 tumors; [8])?
Answer: 68.4%

Question: And the “% T/C on day 13” value (SW1990 tumors; [8])?
Answer: 74.4%

Question: What about the “% T/C on day 15” value (SW1990 tumors; [8]) of the same molecule?
Answer: 74.7%

Question: And the “% T/C on day 17” value (SW1990 tumors; [8])?
Answer: 80.7%

Question: And the “% T/C on day 20” value (SW1990 tumors; [8])?
Answer: 71.9%

Question: And the “% T/C on day 22” value (SW1990 tumors; [8])?
Answer: 75.4%

Question: And the “% T/C on day 24” value (SW1990 tumors; [8])?
Answer: 77.3%

Question: What about the “% T/C on day 28” value (SW1990 tumors; [8]) of the same molecule?
Answer: 63.9%

Question: What about the “% T/C on day 0” value (SW1990 tumors; [9]) of the same molecule?
Answer: 99.6%

Question: And the “% T/C on day 3” value (SW1990 tumors; [9])?
Answer: 81.3%

Question: And the “% T/C on day 6” value (SW1990 tumors; [9])?
Answer: 71.0%

Question: What about the “% T/C on day 8” value (SW1990 tumors; [9]) of the same molecule?
Answer: 73.1%

Question: What about the “% T/C on day 10” value (SW1990 tumors; [9]) of the same molecule?
Answer: 65.6%

Question: And the “% T/C on day 13” value (SW1990 tumors; [9])?
Answer: 63.1%

Question: And the “% T/C on day 15” value (SW1990 tumors; [9])?
Answer: 56.3%

Question: What about the “% T/C on day 17” value (SW1990 tumors; [9]) of the same molecule?
Answer: 56.7%

Question: What about the “% T/C on day 20” value (SW1990 tumors; [9]) of the same molecule?
Answer: 56.9%

Question: What about the “% T/C on day 22” value (SW1990 tumors; [9]) of the same molecule?
Answer: 56.5%

Question: And the “% T/C on day 24” value (SW1990 tumors; [9])?
Answer: 53.0%

Question: And the “% T/C on day 28” value (SW1990 tumors; [9])?
Answer: 51.7%

Question: What about the “% T/C on day 0” value (SW1990 tumors; [10]) of the same molecule?
Answer: 100.0%

Question: What about the “% T/C on day 3” value (SW1990 tumors; [10]) of the same molecule?
Answer: 74.3%

Question: And the “% T/C on day 6” value (SW1990 tumors; [10])?
Answer: 61.3%

Question: What about the “% T/C on day 8” value (SW1990 tumors; [10]) of the same molecule?
Answer: 59.4%

Question: What about the “% T/C on day 10” value (SW1990 tumors; [10]) of the same molecule?
Answer: 56.7%

Question: What about the “% T/C on day 13” value (SW1990 tumors; [10]) of the same molecule?
Answer: 56.1%

Question: And the “% T/C on day 15” value (SW1990 tumors; [10])?
Answer: 53.2%

Question: What about the “% T/C on day 17” value (SW1990 tumors; [10]) of the same molecule?
Answer: 47.8%

Question: And the “% T/C on day 20” value (SW1990 tumors; [10])?
Answer: 44.2%

Question: What about the “% T/C on day 22” value (SW1990 tumors; [10]) of the same molecule?
Answer: 45.3%

Question: What about the “% T/C on day 24” value (SW1990 tumors; [10]) of the same molecule?
Answer: 44.8%

Question: And the “% T/C on day 28” value (SW1990 tumors; [10])?
Answer: 38.9%

Question: What about the IC50 [1] of the same molecule?
Answer: 3.7 nM

Question: And the IC50 [2]?
Answer: 2.6 nM

Question: What about the IC50 [3] of the same molecule?
Answer: 3.2 nM

Question: What about the IC50 [4] of the same molecule?
Answer: 3.6 nM

Question: And the IC50 [5]?
Answer: 3.5 nM

Question: And the IC50 [6]?
Answer: 5 nM
